Patent US9096593B2, “Compounds and methods for kinase modulation, and indications therefor” (Plexxikon Inc., priority 2009, dated 2015)
Where two headings read alike, the source gives them in different places.

Legend:
Fms kinase = Fms kinase (Homo sapiens (Human), UniProt P07333); experiment: Fms kinase biochemical activity assay (AlphaScreen, biotin-(E4Y)10 phosphorylation); conditions: for IC50: read-out: Biochemical activity (IC50 μM) Fms
Method in brief: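 Recombinant human Fms phosphorylating 30 nM biotin-(E4Y)10 with 100 μM ATP (1 ng/well enzyme) in Hepes pH 7.5 buffer with Mg2+/Mn2+, 5% DMSO, 20 min at 30 °C. Phosphotyrosine detected by AlphaScreen streptavidin donor/PY20 acceptor beads; IC50 from signal versus compound concentration.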

c-Kit kinase = c-Kit kinase (Homo sapiens (Human), UniProt P10721); experiment: c-Kit kinase biochemical activity assay (AlphaScreen, biotin-(E4Y)10 phosphorylation)
Chain of c-Kit kinase (P10721 26-976): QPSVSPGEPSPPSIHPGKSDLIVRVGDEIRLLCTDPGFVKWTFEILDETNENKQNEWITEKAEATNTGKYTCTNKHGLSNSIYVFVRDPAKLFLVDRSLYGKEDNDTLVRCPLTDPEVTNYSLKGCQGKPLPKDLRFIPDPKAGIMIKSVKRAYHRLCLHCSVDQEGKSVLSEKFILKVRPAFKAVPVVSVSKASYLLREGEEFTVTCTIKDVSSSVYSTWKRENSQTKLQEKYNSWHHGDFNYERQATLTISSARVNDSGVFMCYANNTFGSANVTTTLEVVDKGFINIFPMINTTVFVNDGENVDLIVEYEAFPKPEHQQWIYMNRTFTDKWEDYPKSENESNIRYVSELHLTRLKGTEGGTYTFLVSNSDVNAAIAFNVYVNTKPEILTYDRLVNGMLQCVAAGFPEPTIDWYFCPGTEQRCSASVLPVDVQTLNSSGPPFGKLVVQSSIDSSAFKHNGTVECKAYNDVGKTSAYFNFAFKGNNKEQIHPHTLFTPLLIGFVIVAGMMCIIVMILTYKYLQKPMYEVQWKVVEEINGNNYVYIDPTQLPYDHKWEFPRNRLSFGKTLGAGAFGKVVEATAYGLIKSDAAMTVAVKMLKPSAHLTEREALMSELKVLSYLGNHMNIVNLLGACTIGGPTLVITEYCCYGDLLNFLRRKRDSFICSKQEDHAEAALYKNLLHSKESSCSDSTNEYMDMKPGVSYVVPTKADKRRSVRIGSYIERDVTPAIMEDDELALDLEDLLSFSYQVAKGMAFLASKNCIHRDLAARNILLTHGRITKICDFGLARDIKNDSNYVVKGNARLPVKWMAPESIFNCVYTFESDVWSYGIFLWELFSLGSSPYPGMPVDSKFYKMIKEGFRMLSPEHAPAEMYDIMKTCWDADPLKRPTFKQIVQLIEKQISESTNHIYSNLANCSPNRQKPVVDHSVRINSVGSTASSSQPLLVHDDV

CYP1A2 = CYP1A2 (Homo sapiens (Human), UniProt P05177); experiment: CYP enzyme inhibition, fluorescent substrate
Chain of CYP1A2 (P05177 whole entry): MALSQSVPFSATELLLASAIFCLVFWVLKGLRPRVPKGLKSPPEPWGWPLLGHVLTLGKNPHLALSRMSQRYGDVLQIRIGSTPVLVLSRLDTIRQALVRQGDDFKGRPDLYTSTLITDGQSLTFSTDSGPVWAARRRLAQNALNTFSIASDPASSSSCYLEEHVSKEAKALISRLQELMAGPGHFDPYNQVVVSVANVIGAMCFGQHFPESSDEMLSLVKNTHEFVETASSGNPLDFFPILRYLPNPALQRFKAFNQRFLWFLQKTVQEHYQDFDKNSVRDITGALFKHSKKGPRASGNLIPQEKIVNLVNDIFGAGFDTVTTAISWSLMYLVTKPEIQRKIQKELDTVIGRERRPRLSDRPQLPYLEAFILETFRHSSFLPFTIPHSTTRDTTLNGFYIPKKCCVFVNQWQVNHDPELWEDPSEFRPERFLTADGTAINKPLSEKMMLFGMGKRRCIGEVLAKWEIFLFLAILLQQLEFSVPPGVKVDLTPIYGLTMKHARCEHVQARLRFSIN

CYP2C19 = CYP2C19 (Homo sapiens (Human), UniProt P33261); experiment: CYP enzyme inhibition, fluorescent substrate
Chain of CYP2C19 (P33261 whole entry): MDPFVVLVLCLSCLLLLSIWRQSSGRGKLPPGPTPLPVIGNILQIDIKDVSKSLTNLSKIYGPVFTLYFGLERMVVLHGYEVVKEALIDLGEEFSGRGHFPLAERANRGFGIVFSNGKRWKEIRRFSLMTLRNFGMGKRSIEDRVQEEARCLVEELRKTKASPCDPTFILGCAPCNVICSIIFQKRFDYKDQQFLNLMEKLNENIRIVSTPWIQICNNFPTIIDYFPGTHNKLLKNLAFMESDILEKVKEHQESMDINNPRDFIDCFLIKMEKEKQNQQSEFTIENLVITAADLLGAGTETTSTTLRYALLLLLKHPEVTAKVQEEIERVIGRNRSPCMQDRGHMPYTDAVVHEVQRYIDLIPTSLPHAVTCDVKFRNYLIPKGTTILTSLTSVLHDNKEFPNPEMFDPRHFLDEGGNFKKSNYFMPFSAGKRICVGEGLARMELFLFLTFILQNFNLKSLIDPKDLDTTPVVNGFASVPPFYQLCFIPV
Method in brief: (§1)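 […]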

CYP2C9 = CYP2C9 (Homo sapiens (Human), UniProt P11712); experiment: CYP enzyme inhibition, fluorescent substrate
Chain of CYP2C9 (P11712 whole entry): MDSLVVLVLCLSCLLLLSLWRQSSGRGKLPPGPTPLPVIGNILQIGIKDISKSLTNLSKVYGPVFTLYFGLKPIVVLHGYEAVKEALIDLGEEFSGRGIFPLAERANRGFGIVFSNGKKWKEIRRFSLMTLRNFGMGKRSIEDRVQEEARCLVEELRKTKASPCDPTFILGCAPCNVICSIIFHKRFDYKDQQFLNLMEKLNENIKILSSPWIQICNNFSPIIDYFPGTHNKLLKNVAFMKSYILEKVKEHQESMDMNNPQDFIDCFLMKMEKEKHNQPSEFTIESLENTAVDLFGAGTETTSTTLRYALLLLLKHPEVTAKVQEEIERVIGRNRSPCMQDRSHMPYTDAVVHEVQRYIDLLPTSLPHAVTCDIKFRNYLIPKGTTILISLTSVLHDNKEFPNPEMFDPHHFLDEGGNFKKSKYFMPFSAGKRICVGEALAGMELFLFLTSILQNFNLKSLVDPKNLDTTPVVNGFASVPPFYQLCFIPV
Method in brief: as §1

CYP2D6 = CYP2D6 (Homo sapiens (Human), UniProt P10635); experiment: CYP enzyme inhibition, fluorescent substrate; conditions: read-out: Cyp IC50 (μM) 2D6
Chain of CYP2D6 (P10635 whole entry): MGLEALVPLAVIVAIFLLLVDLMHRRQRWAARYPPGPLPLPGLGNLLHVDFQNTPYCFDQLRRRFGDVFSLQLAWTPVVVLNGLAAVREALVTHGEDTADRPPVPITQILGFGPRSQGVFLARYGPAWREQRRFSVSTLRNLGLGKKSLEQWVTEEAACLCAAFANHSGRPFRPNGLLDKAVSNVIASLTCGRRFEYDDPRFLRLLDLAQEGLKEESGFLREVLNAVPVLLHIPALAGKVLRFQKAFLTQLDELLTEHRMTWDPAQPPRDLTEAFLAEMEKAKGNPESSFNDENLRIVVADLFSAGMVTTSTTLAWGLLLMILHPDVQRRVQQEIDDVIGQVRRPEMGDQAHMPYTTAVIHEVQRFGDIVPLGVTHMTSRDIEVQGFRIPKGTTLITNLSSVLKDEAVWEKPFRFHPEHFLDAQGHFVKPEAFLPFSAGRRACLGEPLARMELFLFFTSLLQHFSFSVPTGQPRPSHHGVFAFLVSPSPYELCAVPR

CYP3A4(BFC) = CYP3A4(BFC) (Homo sapiens (Human), UniProt P08684); experiment: CYP enzyme inhibition, fluorescent substrate
Chain of CYP3A4(BFC) (P08684 whole entry): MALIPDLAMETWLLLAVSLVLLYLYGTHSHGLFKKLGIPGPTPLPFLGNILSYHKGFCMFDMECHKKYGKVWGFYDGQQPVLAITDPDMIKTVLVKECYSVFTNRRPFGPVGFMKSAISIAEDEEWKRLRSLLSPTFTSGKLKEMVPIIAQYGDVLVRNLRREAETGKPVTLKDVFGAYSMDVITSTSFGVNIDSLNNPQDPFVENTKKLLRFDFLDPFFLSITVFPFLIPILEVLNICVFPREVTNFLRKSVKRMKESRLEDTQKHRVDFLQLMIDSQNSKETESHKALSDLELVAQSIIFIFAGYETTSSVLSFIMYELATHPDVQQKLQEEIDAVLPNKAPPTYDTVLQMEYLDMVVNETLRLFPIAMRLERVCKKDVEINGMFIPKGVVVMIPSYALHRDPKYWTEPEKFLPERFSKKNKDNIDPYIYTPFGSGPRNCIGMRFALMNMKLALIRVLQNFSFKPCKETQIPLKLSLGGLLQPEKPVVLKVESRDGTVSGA
Method in brief: as §1

CYP3A4(BQ) = CYP3A4(BQ) (Homo sapiens (Human), UniProt P08684); experiment: CYP enzyme inhibition, fluorescent substrate
Chain of CYP3A4(BQ) (P08684 whole entry): as above
Method in brief: as §1

[1] = read-out: Cyp IC50 (μM) 3A4(BFC), BFC substrate
[2] = read-out: Cyp IC50 (μM) 3A4(BQ), BQ substrate

Chain of Fms kinase (P07333 20-972): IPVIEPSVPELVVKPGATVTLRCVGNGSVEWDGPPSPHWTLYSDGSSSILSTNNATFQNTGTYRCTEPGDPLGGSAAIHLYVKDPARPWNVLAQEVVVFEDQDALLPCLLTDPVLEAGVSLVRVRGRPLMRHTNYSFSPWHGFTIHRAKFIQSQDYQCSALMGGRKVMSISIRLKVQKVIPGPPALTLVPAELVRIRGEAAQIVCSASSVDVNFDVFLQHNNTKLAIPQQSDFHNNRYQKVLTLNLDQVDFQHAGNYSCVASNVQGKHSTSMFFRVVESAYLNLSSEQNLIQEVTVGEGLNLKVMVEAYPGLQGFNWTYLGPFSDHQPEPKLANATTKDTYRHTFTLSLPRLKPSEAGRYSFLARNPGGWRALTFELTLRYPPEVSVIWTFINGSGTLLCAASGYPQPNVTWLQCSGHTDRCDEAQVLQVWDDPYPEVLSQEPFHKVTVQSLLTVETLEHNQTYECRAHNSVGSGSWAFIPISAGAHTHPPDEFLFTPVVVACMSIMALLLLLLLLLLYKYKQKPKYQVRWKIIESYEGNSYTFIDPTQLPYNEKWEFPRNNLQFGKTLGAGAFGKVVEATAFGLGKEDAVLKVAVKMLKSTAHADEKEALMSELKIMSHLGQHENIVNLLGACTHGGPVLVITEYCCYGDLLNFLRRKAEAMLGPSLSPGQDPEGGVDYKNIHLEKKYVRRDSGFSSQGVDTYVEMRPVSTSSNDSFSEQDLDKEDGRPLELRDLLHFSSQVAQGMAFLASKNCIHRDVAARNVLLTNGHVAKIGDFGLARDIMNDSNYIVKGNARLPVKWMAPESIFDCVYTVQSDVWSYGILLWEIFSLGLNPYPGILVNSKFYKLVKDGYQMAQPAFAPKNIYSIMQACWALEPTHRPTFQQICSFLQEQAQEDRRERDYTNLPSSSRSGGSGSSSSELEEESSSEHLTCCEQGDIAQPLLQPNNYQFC

Row | Structure (SMILES) | Biochemical activity selectivity (Kit IC50/Fms IC50) (Fms kinase) | IC50 (Fms kinase) | IC50 (c-Kit kinase) | IC50 (CYP1A2; human, 15 min) | IC50 (CYP2C19; read-out: Cyp IC50 (μM) 2C19) | IC50 (CYP2C9) | IC50 (CYP2D6) | IC50 (CYP3A4(BFC); [1]) | IC50 (CYP3A4(BQ)) | IC50 (CYP2C9; read-out: Cyp IC50 (μM) 2C9) | IC50 (CYP3A4(BFC)) | IC50 (CYP2C19) | IC50 (CYP3A4(BQ); [2]) | IC50 (CYP1A2) | IC50 (CYP1A2; read-out: Cyp IC50 (μM) 1A2)
1 | COc1ncc(F)cc1CNc1ncc(Cc2c[nH]c3ncc(C)cc23)cn1 [Compound P-2061, (5-Fluoro-2-methoxy-pyridin-3-ylmethyl)-[5-(5-methyl-1H-pyrrolo[2,3-b]pyridin-3-ylmethyl)-pyrimidin-2-yl]-amine] | >20 | < 0.1 µM | > 0.1 µM | > 10 µM | > 10 µM | 5 to 10 µM | > 10 µM | > 10 µM | 5 to 10 µM |  |  |  |  |  | 
2 | Cc1cnc2[nH]cc(Cc3ccc(NCc4cnccc4C(F)(F)F)nc3F)c2c1 [Compound P-2062, [6-Fluoro-5-(5-methyl-1H-pyrrolo[2,3-b]pyridin-3-ylmethyl)-pyridin-2-yl]-(4-trifluoromethyl-pyridin-3-ylmethyl)-amine] | >20 | < 0.1 µM | > 0.1 µM | > 10 µM | < 5 µM |  | > 10 µM |  | 5 to 10 µM | < 5 µM | 5 to 10 µM |  |  |  | 
3 | FC(F)(F)c1ccncc1CNc1ccc(Cc2c[nH]c3ncc(Cl)cc23)cn1 [Compound P-2063, [5-(5-Chloro-1H-pyrrolo[2,3-b]pyridin-3-ylmethyl)-pyridin-2-yl]-(4-trifluoromethyl-pyridin-3-ylmethyl)-amine] | <20 | < 0.1 µM | < 0.1 µM | > 10 µM |  |  | > 10 µM |  | 5 to 10 µM | > 10 µM | 5 to 10 µM | 5 to 10 µM |  |  | 
4 | COc1ncc(CNc2ncc(Cc3c[nH]c4ncc(C)cc34)cn2)cc1F [Compound P-2073, (5-Fluoro-6-methoxy-pyridin-3-ylmethyl)-[5-(5-methyl-1H-pyrrolo[2,3-b]pyridin-3-ylmethyl)-pyrimidin-2-yl]-amine] | >20 | < 0.1 µM | > 0.1 µM | > 10 µM | > 10 µM |  | > 10 µM |  |  | < 5 µM | 5 to 10 µM |  | > 10 µM |  | 
5 | Cc1cc(CNc2ccc(Cc3c[nH]c4ncc(Cl)cc34)c(F)n2)ccn1 [Compound P-2075, [5-(5-Chloro-1H-pyrrolo[2,3-b]pyridin-3-ylmethyl)-6-fluoro-pyridin-2-yl]-(2-methyl-pyridin-4-ylmethyl)-amine] | >20 | < 0.1 µM | > 0.1 µM |  | < 5 µM |  | > 10 µM | < 5 µM | 5 to 10 µM | < 5 µM |  |  |  | 5 to 10 µM | 
6 | Cc1cnc2[nH]cc(Cc3cnc(NCc4cccc(C)n4)nc3)c2c1 [Compound P-2079, (6-Methyl-pyridin-2-ylmethyl)-[5-(5-methyl-1H-pyrrolo[2,3-b]pyridin-3-ylmethyl)-pyrimidin-2-yl]-amine] | <20 | < 0.1 µM | < 0.1 µM | > 10 µM |  | 5 to 10 µM | > 10 µM | < 5 µM | 5 to 10 µM |  |  | 5 to 10 µM |  |  | 
7 | Cc1cnc2[nH]cc(Cc3cnc(NCc4cccc(N5CCOCC5)n4)nc3)c2c1 [Compound P-2081, [5-(5-Methyl-1H-pyrrolo[2,3-b]pyridin-3-ylmethyl)-pyrimidin-2-yl]-(6-morpholin-4-yl-pyridin-2-ylmethyl)-amine] | <20 | < 0.1 µM | < 0.1 µM | > 10 µM | < 5 µM |  | > 10 µM | < 5 µM | 5 to 10 µM | < 5 µM |  |  |  |  | 
8 | Cc1cnc2[nH]cc(Cc3cnc(NCc4cccc(N5CCCC5)n4)nc3)c2c1 [Compound P-2082, [5-(5-Methyl-1H-pyrrolo[2,3-b]pyridin-3-ylmethyl)-pyrimidin-2-yl]-(6-pyrrolidin-1-yl-pyridin-2-ylmethyl)-amine] | <20 | < 0.1 µM | < 0.1 µM | > 10 µM | < 5 µM |  | > 10 µM | < 5 µM |  | < 5 µM |  |  | < 5 µM |  | 
9 | Cc1cnc2[nH]cc(Cc3ccc(NCc4ccc(Cl)nc4)nc3F)c2c1 [Compound P-2088, (6-Chloro-pyridin-3-ylmethyl)-[6-fluoro-5-(5-methyl-1H-pyrrolo[2,3-b]pyridin-3-ylmethyl)-pyridin-2-yl]-amine] | >20 | < 0.1 µM | > 0.1 µM |  | < 5 µM |  | > 10 µM |  | 5 to 10 µM | < 5 µM | 5 to 10 µM |  |  |  | > 10 µM
